The text below walks through data of ChEMBL document CHEMBL4823300, “Design, synthesis and anticancer activity of sulfenylated imidazo-fused heterocycles” (Bioorg Med Chem Lett, 2021).

For assay [1], the system named is DU-145. Nature of the assay: Anticancer activity against human DU-145 cells assessed as growth inhibition incubated for 48 hrs by MTT assay. In kind it is functional, cell-based. As to conditions: DU-145, 48 h. (Tetrazolium assays rely on reduction of a dye to a coloured formazan, in cell work by metabolically active cells.)
Assay [2] concerns HeLa. Nature of the assay: Anticancer activity against human HeLa cells assessed as growth inhibition incubated for 48 hrs by MTT assay. Type of assay: functional, cell-based.
Assay [3] deals with HEK293. Nature of the assay: Anticancer activity against human HEK293 cells assessed as growth inhibition incubated for 48 hrs by MTT assay. The conditions noted are these: HEK293, 48 h. Type of assay: cell-based.
In assay [4] the test system is U-87 MG. Nature of the assay: Anticancer activity against human U-87 MG cells assessed as growth inhibition incubated for 48 hrs by MTT assay. In kind it is functional, cell-based, U-87MG ATCC.
The subject of assay [5] is NIH3T3. Nature of the assay: Anticancer activity against mouse NIH3T3 cells assessed as growth inhibition incubated for 48 hrs by MTT assay. Type of assay: cell-based. As to conditions: NIH3T3, 48 h.
In assay [6] the test system is A549. Nature of the assay: Anticancer activity against human A549 cells assessed as growth inhibition incubated for 48 hrs by MTT assay. In kind it is functional, cell-based. The conditions noted are these: A549, 48 h.
For assay [7], the system named is MDA-MB-231. Nature of the assay: Anticancer activity against human MDA-MB-231 cells assessed as growth inhibition incubated for 48 hrs by MTT assay. In kind it is functional, cell-based. The conditions noted are these: MDA-MB-231, 48 h.
Assay [8] concerns HepG2. Nature of the assay: Anticancer activity against human HepG2 cells assessed as growth inhibition incubated for 48 hrs by MTT assay. In kind it is functional, cell-based. The conditions noted are these: HepG2, 48 h.
Assay [9] deals with SK-MEL-28. Nature of the assay: Anticancer activity against human SK-MEL-28 cells assessed as growth inhibition incubated for 48 hrs by MTT assay. In kind it is functional, cell-based. The conditions noted are these: SK-MEL-28, 48 h.

In the case of `CS(=O)(=O)c1ccc(-c2nc3ccccn3c2Sc2ccccc2)cc1`, the IC50 in assay [1] is 67.8 µM; in assay [2], 70.6 µM; in assay [3] it was greater than 100 µM; in [4], 77.2 µM; in assay [5] it was greater than 100 µM; in assay [6] it was 23.2 µM. Moreover, the IC50 in assay [7] came to 72.7 µM; in [8], 13.2 µM; in assay [9] it was 61.9 µM.
Turning to `COc1cccc2c1C(=O)c1c(O)c3c(c(O)c1C2=O)C[C@@](O)(C(=O)CO)C[C@@H]3O[C@H]1C[C@H](N)[C@H](O)[C@H](C)O1` [DOXORUBICIN], the IC50 in assay [1] is 1.4 µM; in [2], 2.1 µM; in [4] it was 1.7 µM; in [7], 1.6 µM; in assay [8] it was 1.8 µM; in assay [9] it was 1.8 µM.
Take `Clc1ccc(-c2nc3ccccn3c2Sc2ccccc2)cc1`: the IC50 in [1] was 30.7 µM; in assay [2], 62 µM; in assay [3] it was greater than 100 µM; in [4] it was 30.2 µM; in assay [5], greater than 100 µM; in [6], 22 µM. The IC50 is 24.5 µM in [7], 13.9 µM in assay [8] and 73.1 µM in [9].
On to `Clc1ccc(-c2nc3sc4ccccc4n3c2Sc2ccccc2)cc1`, for which the IC50 is 78 µM in [1]; 64.1 µM in assay [2]; greater than 100 µM in assay [3]; greater than 100 µM in assay [4]; greater than 100 µM in assay [5]; 75.1 µM in assay [6]. In addition, the IC50 in assay [7] is 72.1 µM; in [8], 57.8 µM; in [9], greater than 100 µM.
For the compound `Clc1ccc(Sc2c(-c3ccccc3)nc3ccccn23)cc1`, the IC50 was 76.7 µM in assay [1]; 36.6 µM in assay [2]; 91.4 µM in assay [3]; 62.8 µM in [4]; 88.7 µM in assay [5]; 27.7 µM in assay [6]. Further, the IC50 in [7] came to 57.6 µM; in assay [8], 16.9 µM; in assay [9] it was 74 µM.
With `Cc1ccc2nc(-c3ccc(Cl)cc3)c(Sc3ccccc3)n2c1`, the IC50 was 95.1 µM in assay [1]; 79.9 µM in [2]; greater than 100 µM in assay [3]; greater than 100 µM in [4]; greater than 100 µM in assay [5]; 71.5 µM in [6]. In addition, the IC50 in assay [7] was found to be 94.5 µM; in assay [8], 63.1 µM; in assay [9] it was 81.5 µM.
`Clc1ccc2nc(-c3ccccc3)c(Sc3ccccc3)n2c1`: the IC50 is 56.3 µM in [1]; 29.3 µM in assay [2]; greater than 100 µM in assay [3]; greater than 100 µM in assay [4]; greater than 100 µM in assay [5]; 24.4 µM in assay [6]. The IC50 in [7] was 55.8 µM; in assay [8], 15.7 µM; in assay [9], 76.9 µM.
As to `CS(=O)(=O)c1ccc(-c2nc3ccccn3c2Sc2cccc3ccccc23)cc1`, the IC50 was 20.8 µM in assay [1]; 34.6 µM in assay [2]; 83.2 µM in assay [3]; 56.2 µM in assay [4]; 86.4 µM in assay [5]; 19.6 µM in [6]. The IC50 in [7] amounted to 24.1 µM; in assay [8], 13.6 µM; in assay [9], 67.3 µM.
Turning to `CCc1ccc(-c2nc3ccccn3c2Sc2ccccc2)cc1`, the IC50 in [1] is 84.5 µM; in [2] it was 52.1 µM; in assay [3], greater than 100 µM; in assay [4], 61.7 µM; in assay [5] it was greater than 100 µM; in assay [6] it was 56.2 µM. For the same compound, the IC50 was greater than 100 µM in assay [7], 50.2 µM in assay [8] and greater than 100 µM in assay [9].
Take `c1ccc(Sc2c(-c3cccs3)nc3ccccn23)cc1`: the IC50 in assay [1] was 24.1 µM; in assay [2], 19.9 µM; in assay [3] it was greater than 100 µM; in [4], greater than 100 µM; in [5], greater than 100 µM; in assay [6], 16.9 µM. The results for the IC50 in [7], in [8] and in assay [9] were 69.2 µM, 17.1 µM and 85.3 µM, respectively.
For the compound `N#Cc1ccc(-c2nc3ccccn3c2Sc2ccccc2)cc1`, the IC50 is 76.5 µM in assay [1]; 64.2 µM in [2]; greater than 100 µM in assay [3]; 65.5 µM in [4]; greater than 100 µM in assay [5]; 35.2 µM in assay [6]. Further, the results for the IC50 in assay [7], in assay [8] and in [9] were 17.8 µM, 15.7 µM and 67.5 µM, respectively.
In the case of `COc1ccc(-c2nc3ccccn3c2Sc2ccccc2)cc1`, the IC50 is 76.8 µM in [1]; greater than 100 µM in assay [2]; greater than 100 µM in [3]; greater than 100 µM in assay [4]; 91.7 µM in assay [5]; 58.4 µM in [6]. The IC50 is greater than 100 µM in [7], 54.2 µM in assay [8] and 83.9 µM in assay [9].
On to `Clc1ccc(Sc2c(-c3cccs3)nc3ccccn23)cc1`, for which the IC50 was 92.3 µM in assay [1]; 74.1 µM in assay [2]; 93 µM in assay [3]; greater than 100 µM in [4]; 86.1 µM in assay [5]; 69.8 µM in [6]. For the same compound, the IC50 in assay [7] turned out to be 73.1 µM; in assay [8], 59.3 µM; in assay [9], 77.3 µM.
For the compound `COc1cccc(OC)c1-c1nc2ccccn2c1Sc1ccccc1`, the IC50 in assay [1] is 22.4 µM; in assay [2], 32.2 µM; in assay [3], greater than 100 µM; in assay [4], greater than 100 µM; in assay [5], greater than 100 µM; in assay [6], 21.5 µM. In addition, the IC50 is 75.6 µM in assay [7], 19.5 µM in assay [8] and greater than 100 µM in assay [9].
In the case of `Cc1ccc(-c2nc3ccc(C)cn3c2Sc2ccccc2)cc1`, the IC50 in assay [1] was 57.7 µM; in [2], 65.2 µM; in assay [3] it was greater than 100 µM; in [4] it was 82.1 µM; in assay [5] it was greater than 100 µM; in assay [6] it was 23.8 µM. For the same compound, the values for the IC50 in assay [7], in assay [8] and in [9] were 38 µM, 14.6 µM and 95.7 µM, respectively.
For the compound `c1ccc(Sc2c(-c3ccsc3)nc3ccccn23)cc1`, the IC50 in assay [1] was 85.9 µM; in [2], 76 µM; in [3], 91.7 µM; in [4], 58.6 µM; in [5] it was 94.1 µM; in [6] it was 72.9 µM. Moreover, the figures for the IC50 in assay [7], in assay [8] and in assay [9] were 62.8 µM, 49.6 µM and 69.3 µM, respectively.
`c1ccc(Sc2c(-c3ccccc3)nc3ccc(-c4ccccc4)cn23)cc1`: the IC50 in assay [1] was 71.7 µM; in assay [2], 72.6 µM; in [3], greater than 100 µM; in assay [4] it was greater than 100 µM; in [5] it was greater than 100 µM; in assay [6] it was 54.2 µM. The IC50 in [7] was 76.7 µM; in assay [8], 47.8 µM; in [9], greater than 100 µM.
Consider `Cc1ccc(-c2nc3ccccn3c2Sc2ccccc2)cc1`, for which the IC50 in assay [1] was 83.3 µM; in assay [2] it was 86.7 µM; in assay [3], greater than 100 µM; in assay [4] it was greater than 100 µM; in [5] it was greater than 100 µM; in [6] it was 94.3 µM. Besides, the IC50 in assay [7] is greater than 100 µM; in assay [8] it was 67.9 µM; in [9] it was greater than 100 µM.
As to `c1ccc(Sc2c(-c3ccccc3)nc3sc4ccccc4n23)cc1`, the IC50 was 45 µM in assay [1]; 34.2 µM in [2]; greater than 100 µM in assay [3]; 62.6 µM in [4]; greater than 100 µM in [5]; 28.1 µM in assay [6]. Moreover, the IC50 in assay [7] came to 54.9 µM; in assay [8] it was 22.3 µM; in assay [9], 63.2 µM.

The term IC50 denotes the concentration at which inhibition is half-maximal.
